For data set [1] the following is noted: both, human.
Protocol: The skin was donated by male and female patients aged 28 to 63 years old undergoing abdominal plastic surgery at the Department for Plastic, Aesthetic, and Reconstructive Surgery of the Medical University Graz. […] The human skin explants were cleaned with gauze swabs and purified water and were subsequently stored frozen at −20° C.
The skin explants were thawed at room temperature for 12 h before the start of the study. They were fixed on a plate of extruded polystyrene wrapped in a medical underpad (MoliNea N, Paul Hartmann AG, Austria) and placed into a climate chamber (32° C./40-60% relative humidity) for 1 h before use. Ambient temperature and ambient relative humidity within the climate chamber were controlled throughout the experiment with a data logger with integrated temperature sensor and relative humidity sensor (175 H1 temperature and humidity data logger, Testo, Germany).
Cannulas (Sterican 20G, B.Braun, Germany) were inserted into the dermis and the subcutis of the skin explant. OFM probes (OFM-P0X-15, JR-HEALTH, Austria) were pushed through the cannulas. Afterwards, the cannulas were removed and the probes were fixed to the skin with cyanoacrylate (Cyanolit 241F, Panacol-Elosol GmbH, Germany). […]
The test system of data set [2] is protein. The following applies: cited from earlier work.
The nature of data set [3]: Non-specific adsorption of diclofenac on the OFM probes and tubing. The note with it: for the duration of the experiment (6 h); data not shown. As to the method:
Two test solutions of diclofenac diethyl amine salt (DDEA) and diclofenac sodium salt (DNa) were tested. […] Samples were collected in 1 h intervals. Syringes and Eppendorf® vials were used to deliver test solution to the OFM outlet sections and tubing, respectively. Samples from the syringes and from the Eppendorf® vials were taken at the start (t=0 h) and at the end (t=6 h) of the experiment to determine the concentration entering the OFM probe and tubing. Syringes, dosing needles, Eppendorf® vials, and pipette tips were coated with each test solution prior to use. For coating, the samples were filled with test solutions and maintained at room temperature for 30 min. Afterwards, the coating test solutions were discarded. Pipette tips underwent three cycles of filling and emptying of test solutions. The fourth filling of the pipette tip was used as the sample. Adsorption was assessed by comparing inflow to outflow concentrations. […] LLOQ was 10 ng mL^-1.

For `O=C(O)Cc1ccccc1Nc1c(Cl)cccc1Cl` [DNa, diclofenac sodium], in data set [1] (28 h), the “concentration in recirculation probes higher than in control probes by” value was determined as 9 ng/mL.

Compound `O=C(O)Cc1ccccc1Nc1c(Cl)cccc1Cl` [Diclofenac, diclofenac] showed a dilution factor in data set [1] of 13.9 fold. In addition, the protein binding in data set [2] was greater than 99.8%.

As for `O=C(O)Cc1ccccc1Nc1c(Cl)cccc1Cl` [DDEA, diclofenac diethylammonium], in data set [3], the “stability in the stock solution” value is on record as “stable”.

These data come from US20250198992A1, “IN VITRO METHODS” (HALEON CH SARL, priority 2022, published 2025).
